Measurements from PMC4122355, “Inhibitor of the Tyrosine Phosphatase STEP Reverses Cognitive Deficits in a Mouse Model of Alzheimer's Disease” (PLoS Biology, 2014).

Key:
[1] = test system: GluN2B Y1472, Pyk2 Y402, ERK1/2 Y204/187 in WT and STEP KO cortical neurons; assay: Tyr phosphorylation of STEP substrates in WT and STEP KO mouse cortical cultures; format: cell-based; conditions: 1 h
Method: Primary cortical neurons were isolated from Sprague Dawley rat embryos (E18) (Charles River Laboratories, Wilmington, MA) as previously described. In some experiments, cortical neurons were made from WT and STEP KO mouse embryos (E18). Neurons were allowed to grow for 18–21 d in CO2 incubator before addition of compounds at indicated doses for 1 h. Immediately following treatments, neurons were lysed in RadioImmuno Precipitation Assay (RIPA) buffer supplied with protease inhibitor cocktail (Roche Applied Science, Indianapolis, IN) and phosphatase inhibitors (NaF and Na3VO4). All experiments were replicated four times with four independent batches of cultures.
Samples were prepared and resolved by SDS-PAGE, transferred to nitrocellulose membrane, and incubated with phospho-specific antibodies (anti-pY^204/187 ERK1/2, anti-pY^402 Pyk2, anti-pY^1472 GluN2B) or total protein antibodies (anti-ERK2, anti-Pyk2, and anti-NR2B) overnight at 4°C. Immunoreactivity was visualized using a Chemiluminescent substrate kit (Pierce Biotechnology, Rockford, IL) and detected using a G:BOX with the image program GeneSnap (Syngene, Cambridge, UK). All densitometric quantifications were performed using the Genetools program.

cortical cultures = assay: LDH release toxicity assay in cortical cultures; format: cell-based; conditions: up to 100 µM, up to 48 h, compared to positive controls
Method: Bovine LDH was used as a LDH-positive control. The media was collected and analyzed for LDH. The assay quantitatively measures LDH, a stable cytosolic enzyme that is released upon cell lysis. Released LDH in culture supernatants is measured with a 30-min coupled enzymatic assay, which results in the conversion of a tetrazolium salt (INT) into a red formazan product. The amount of color formed is proportional to the number of lysed cells.

STEP = target: T1, STEP (Mus musculus, UniProt P54830); assay: Dialysis of TC-2153-inhibited STEP; format: biochemical; conditions: after 24 h of dialysis
T1 sequence (P54830 1-541): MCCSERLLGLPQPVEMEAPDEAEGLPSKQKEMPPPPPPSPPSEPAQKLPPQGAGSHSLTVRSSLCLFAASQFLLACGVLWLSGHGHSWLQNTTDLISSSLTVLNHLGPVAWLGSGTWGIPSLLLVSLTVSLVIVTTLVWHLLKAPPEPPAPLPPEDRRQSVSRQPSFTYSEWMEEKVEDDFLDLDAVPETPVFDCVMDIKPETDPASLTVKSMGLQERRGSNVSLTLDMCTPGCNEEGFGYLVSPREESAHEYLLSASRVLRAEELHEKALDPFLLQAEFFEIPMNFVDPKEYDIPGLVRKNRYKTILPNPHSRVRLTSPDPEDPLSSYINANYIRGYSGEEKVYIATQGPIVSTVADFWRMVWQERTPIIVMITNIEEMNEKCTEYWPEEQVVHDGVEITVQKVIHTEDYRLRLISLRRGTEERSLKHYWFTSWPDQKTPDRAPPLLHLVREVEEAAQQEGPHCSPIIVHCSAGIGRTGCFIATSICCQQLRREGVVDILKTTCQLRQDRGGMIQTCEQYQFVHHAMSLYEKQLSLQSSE
Method: The samples were shaken at room temperature for 1 h to inhibit STEP. Each sample was then transferred to a separate Thermo Scientific Slide-A-Lyzer dialysis cassette with a 10,000 MW cutoff and 0.5–3.0 mL sample volume and was dialyzed into 1 L of 1× assay buffer over 24 h in a 4°C cold room. Aliquots of approximately 100 µL were removed from the dialysis cassette at 0, 4, and 24 h time points. Protein concentration was determined by reading absorbance at 280 nm compared to a standard curve for STEP. The samples were diluted to 100 nM in 100 µL of 1× assay buffer. […] The initial rate data collected were used to determine enzyme activity standardized to the DMSO control zero time point.

[2] = test system: GluN2B (Y1472), Pyk2 (Y402), ERK1/2 (Y204/187) in cortex; assay: Tyr phosphorylation of STEP substrates in cortex of WT mice after i.p. injection; format: in vivo, mouse; conditions: C57BL/6 mice, 10 mg/kg i.p., 3 h postinjection, relative to vehicle
Method: Wild-type, male C57BL/6 mice (3–6 mo) were used for all studies. […] Cortical tissues were dissected out 3 h postinjection and processed for subcellular fractionation. […] Homogenates were centrifuged at 800 × g to remove nuclei and large debris (P1). Synaptosomal fractions (P2) were prepared from S1 by centrifugation at 9,200 × g for 15 min. The P2 pellet was washed twice and was resuspended in TEVP buffer. […] Samples were prepared and resolved by SDS-PAGE, transferred to nitrocellulose membrane, and incubated with phospho-specific antibodies (anti-pY^204/187 ERK1/2, anti-pY^402 Pyk2, anti-pY^1472 GluN2B) or total protein antibodies (anti-ERK2, anti-Pyk2, and anti-NR2B) overnight at 4°C. Immunoreactivity was visualized using a Chemiluminescent substrate kit (Pierce Biotechnology, Rockford, IL) and detected using a G:BOX with the image program GeneSnap (Syngene, Cambridge, UK). All densitometric quantifications were performed using the Genetools program.

HePTP = target: T2, HePTP (Homo sapiens, UniProt P35236); assay: Selectivity pNPP assay, full-length PTPs: HePTP; format: biochemical; conditions: full-length PTP, 10 nM, 500 µM pNPP
T2 construct: Full-length HePTP and PTP-SL proteins were purchased from Abnova; purchased Abnova (Taipei, Taiwan)
T2 sequence (P35236 1-360): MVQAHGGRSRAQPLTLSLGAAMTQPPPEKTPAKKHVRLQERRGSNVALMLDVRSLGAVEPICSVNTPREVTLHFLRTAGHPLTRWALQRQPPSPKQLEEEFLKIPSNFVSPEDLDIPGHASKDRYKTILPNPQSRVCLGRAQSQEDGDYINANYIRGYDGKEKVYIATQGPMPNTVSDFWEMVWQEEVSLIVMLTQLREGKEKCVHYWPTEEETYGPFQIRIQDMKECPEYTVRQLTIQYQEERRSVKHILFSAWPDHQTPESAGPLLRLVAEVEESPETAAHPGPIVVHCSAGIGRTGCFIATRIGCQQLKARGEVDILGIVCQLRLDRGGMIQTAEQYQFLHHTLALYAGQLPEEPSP
From the text: Constructs were transformed into BL21 (DE3) E. coli cells. Fusion proteins were purified on a glutathione sepharose column.

[3] = test system: ERK1/2 (Y204/187) and Pyk2 (Y402); assay: Tyr phosphorylation of ERK1/2 and Pyk2 in different organs of WT and STEP KO mice; format: in vivo, mouse

Cl.Nc1cc(C(F)(F)F)cc2c1SSSSS2 [TC-2153, 8-(trifluoromethyl)-1,2,3,4,5-benzopentathiepin-6-amine hydrochloride]
Tyr phosphorylation of STEP substrates in STEP KO cortical cultures ([1]; STEP KO cultures, TC-2153 0.1 and 1 µM, Na3VO4 1 mM): failed to increase the phosphorylation of STEP substrates
Tyr phosphorylation of STEP substrates in WT mouse cortical neurons ([1]; WT cultures, 0.1 and 1 µM): an increase in the Tyr phosphorylation of STEP substrates
LDH release (neuronal cell death) (cortical cultures): no significant effect on LDH release
STEP activity after dialysis (reversibility) (STEP): STEP remained inhibited
pERK1/2 in cortex (P2 fraction) [2]: 2.52±0.16
pGluN2B in cortex (P2 fraction) [2]: 1.66±0.28
pPyk2 in cortex (P2 fraction) [2]: 1.80±0.30
IC50 (HePTP): 363.5 ± 1.2 nM
pERK1/2 and pPyk2 in hippocampus and frontal cortex of STEP KO mice ([3]; STEP KO mice): did not increase the Tyr phosphorylation of these substrates over baseline levels
pERK1/2 and pPyk2 in frontal cortex and hippocampus ([3]; WT mice, 10 mg/kg i.p., 3 h): significant increase in pERK1/2 and pPyk2
pERK1/2 and pPyk2 in cerebellum, spleen, kidney, pancreas (tissues without STEP) ([3]; mice, 10 mg/kg i.p., 3 h): not in the cerebellum or in all tissues tested outside the brain
